Source: ChEMBL document CHEMBL1123020

Columns and labels:
[1] = target: Adrenergic receptor beta; ADRB1 & ADRB2 (Homo sapiens) (UniProt P08588+P07550); details: Canis lupus familiaris
Description: Apparent pA2 value for blockade of isoproterenol-induced increase in heart rate evaluated against beta adrenergic receptor in anesthetized dogs

[2] = target: Beta-1 adrenergic receptor (Homo sapiens) (UniProt P08588); details: Canis lupus familiaris
Description: Apparent pA2 value for myocardial contractile force (beta-1) evaluated against beta-1 adrenergic receptor in anesthetized dogs

[3] = target: Beta-2 adrenergic receptor (Canis lupus familiaris) (UniProt P54833); test: Apparent pA2 value for isoproterenol-induced vasodilation (beta2) evaluated against beta-2 adrenergic receptor in anesthetized dogs
Chain of Beta-2 adrenergic receptor (Canis lupus familiaris) (P54833 whole entry, looked up): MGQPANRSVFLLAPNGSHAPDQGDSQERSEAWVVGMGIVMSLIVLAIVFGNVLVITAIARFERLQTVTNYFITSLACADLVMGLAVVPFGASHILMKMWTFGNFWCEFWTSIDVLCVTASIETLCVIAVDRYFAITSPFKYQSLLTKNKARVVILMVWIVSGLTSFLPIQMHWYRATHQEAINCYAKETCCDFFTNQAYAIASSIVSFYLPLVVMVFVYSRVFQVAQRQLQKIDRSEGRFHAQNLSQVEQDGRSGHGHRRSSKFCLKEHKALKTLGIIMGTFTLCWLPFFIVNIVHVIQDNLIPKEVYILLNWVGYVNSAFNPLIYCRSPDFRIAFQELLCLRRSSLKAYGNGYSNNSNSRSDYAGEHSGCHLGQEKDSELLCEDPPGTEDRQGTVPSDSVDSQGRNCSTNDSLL

Chain of Adrenergic receptor beta; ADRB1 & ADRB2 (Homo sapiens) (P07550 whole entry, looked up): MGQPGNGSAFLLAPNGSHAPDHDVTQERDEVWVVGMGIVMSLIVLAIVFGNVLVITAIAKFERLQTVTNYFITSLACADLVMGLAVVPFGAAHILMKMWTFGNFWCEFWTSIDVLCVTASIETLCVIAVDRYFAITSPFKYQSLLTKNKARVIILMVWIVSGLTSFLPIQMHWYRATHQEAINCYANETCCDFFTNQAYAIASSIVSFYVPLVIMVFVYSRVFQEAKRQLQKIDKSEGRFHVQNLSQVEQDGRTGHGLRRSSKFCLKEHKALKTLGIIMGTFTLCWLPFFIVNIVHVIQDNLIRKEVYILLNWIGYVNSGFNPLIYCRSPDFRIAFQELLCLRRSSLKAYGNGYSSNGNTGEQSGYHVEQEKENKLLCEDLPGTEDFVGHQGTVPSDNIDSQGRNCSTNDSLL
Chain of Adrenergic receptor beta; ADRB1 & ADRB2 (Homo sapiens) (P08588 whole entry, looked up): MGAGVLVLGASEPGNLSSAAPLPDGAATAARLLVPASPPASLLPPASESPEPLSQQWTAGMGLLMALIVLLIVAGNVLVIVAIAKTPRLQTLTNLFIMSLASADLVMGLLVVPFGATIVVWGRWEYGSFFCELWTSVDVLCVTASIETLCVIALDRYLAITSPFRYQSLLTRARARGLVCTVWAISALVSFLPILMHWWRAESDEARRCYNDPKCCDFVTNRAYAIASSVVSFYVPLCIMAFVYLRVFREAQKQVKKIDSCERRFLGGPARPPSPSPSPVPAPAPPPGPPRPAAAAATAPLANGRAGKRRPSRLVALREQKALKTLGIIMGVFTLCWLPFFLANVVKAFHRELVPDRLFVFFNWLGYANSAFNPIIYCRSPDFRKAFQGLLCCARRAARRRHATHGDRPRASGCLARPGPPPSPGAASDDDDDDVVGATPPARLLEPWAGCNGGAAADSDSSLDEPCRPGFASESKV
Chain of Beta-1 adrenergic receptor (Homo sapiens) (P08588 whole entry, looked up): as above

## CC(C)NCC(O)COc1ccc(O)c2ccccc12 (stereo not drawn)
[1]
  Heart rate: 5.12
[2]
  Contractile force: 4.75
[3]
  Vasodilation: 4.82
